# Source: US8022072B2, “Azolylmethylidenehydrazine derivative and use thereof” (Kaken Pharmaceutical Co., Ltd., priority 2007, dated 2011)
# How the values were obtained:
# TNCB-induced dermatitis = experiment: 2,4,6-Trinitrochlorobenzene (TNCB)-induced dermatitis model, ear edema; type: in vivo, male BALB/c mouse; conditions: test compound 1 w/v % (FK506 0.1 w/v %), 20 μL applied to auricle, 24 hours after induction
# Description: (§1) The test compound was adjusted to 1 w/v % when in use with a solvent (acetone:olive oil=1:1, v/v)) and put to use. FK506 (control substance) was adjusted to 0.1 w/v % and used.
# The fur on the abdomen of male BALB/c mouse was shaved with a hair clipper, and 100 μL of 7 w/v % TNCB sensitizing liquid (solvent was acetone:olive oil=4:1, v/v) was applied. Six days after the sensitization, the thickness of the right auricle was measured with a micrometer (pre-value). After the measurement, 10 μL of 1 w/v % TNCB challenge liquid (solvent was acetone:olive oil=1:9, v/v) was applied to the inside of the right auricle to induce ear edema. About 5 minutes after the application of the challenge liquid, 20 μL of the test compound was applied to the outside of the auricle.
# After 24 hours from the induction of ear edema, the thickness of the right auricle was measured by a method similar to the pre-value (post-value). The difference between the post-value and the pre-value of ear edema by each test compound was determined, based on which the inhibition rate was calculated. The activity of each test compound was calculated with the ear edema inhibition rate of FK506 as 1.0 (ear edema inhibition rate of each test compound/ear edema inhibition rate of FK506).
# OVA-induced dermatitis = experiment: Ovalbumin (OVA)-induced dermatitis model, ear edema; type: in vivo, male ICR mouse; set-up: key: ratio of compound's ear edema inhibition rate to FK506's (FK506 = 1.0); conditions: test compound 1 w/v % (FK506 0.1 w/v %), 20 μL applied to auricle, 24 hours after induction
# Description: as §1
# Male ICR mouse was sensitized by the administration of 0.2 mL of OVA-hydroxide aluminum gel suspension to the abdominal cavity. After 14 days from the sensitization, the thickness of the right auricle was measured with a micrometer (pre-value). After the measurement, 20 μL of 0.5 μg/mL OVA challenge liquid (solvent was physiological saline) was subcutaneously administered to the inside of the auricle to induce ear edema. About 5 minutes after the administration of the challenge liquid, 20 μL of the test compound was applied to the outside of the auricle. After 24 hours from the induction of ear edema, the thickness of the right auricle was measured by a method similar to the pre-value (post-value). The difference between the post-value and the pre-value of ear edema by each test compound was determined, based on which the inhibition rate was calculated. The activity of each test compound was calculated with the ear edema inhibition rate of FK506 as 1.0 (ear edema inhibition rate of each test compound/ear edema inhibition rate of FK506).
Structure (SMILES),"TNCB-induced dermatitis, with ear edema inhibition rate of FK506 as 1.0 (TNCB-induced dermatitis)","OVA-induced dermatitis, with ear edema inhibition rate of FK506 as 1.0 (OVA-induced dermatitis)"
"CCCCCOc1ccccc1C(=NN(C)C)n1ccnc1 [Compound No. 24, N′-[1-imidazol-1-yl-1-(2-pentyloxyphenyl)methylidene]-N,N-dimethylhydrazine]",0.5,0.9
"CN(C)N=C(c1ccccc1OCc1ccc(F)cc1)n1ccnc1 [Compound No. 35, N′-[1-[2-(4-fluorobenzyloxy)phenyl]-1-imidazol-1-ylmethylidene]-N,N-dimethylhydrazine]",0.6,0.9
"CN(C)N=C(c1ccccc1OCc1ccc(Cl)cc1)n1ccnc1 [Compound No. 38, N′-[1-[2-(4-chlorobenzyloxy)phenyl]-1-imidazol-1-ylmethylidene]-N,N-dimethylhydrazine]",0.7,1.1
"CN(C)N=C(c1ccccc1OCc1cccc(Cl)c1)n1ccnc1 [Compound No. 40, N′-[1-[2-(3-chlorobenzyloxy)phenyl]-1-imidazol-1-ylmethylidene]-N,N-dimethylhydrazine]",0.7,1.0
"CCc1ccc(COc2ccccc2C(=NN(C)C)n2ccnc2)cc1 [Compound No. 48, N′-[1-[2-(4-ethylbenzyloxy)phenyl]-1-imidazol-1-ylmethylidene]-N,N-dimethylhydrazine]",0.5,1.0
"CN(C)N=C(c1ccccc1OCCc1ccccc1)n1ccnc1 [Compound No. 56, N′-[1-imidazol-1-yl-1-(2-phenethoxyphenyl)methylidene]-N,N-dimethylhydrazine]",0.7,1.2
"CN(C)N=C(c1ccccc1OCCc1ccc(F)cc1)n1ccnc1 [Compound No. 57, N′-[1-[2-[2-(4-fluorophenyl)ethoxy]phenyl]-1-imidazol-1-ylmethylidene]-N,N-dimethylhydrazine]",0.8,1.8
"COc1ccc(CCOc2ccccc2C(=NN(C)C)n2ccnc2)cc1 [Compound No. 58, N′-[1-imidazol-1-yl-1-[2-[2-(4-methoxyphenyl)ethoxy]phenyl]methylidene]-N,N-dimethylhydrazine]",0.9,1.0
"CN(C)N=C(c1ccccc1OCC1COc2ccccc2O1)n1ccnc1 (stereo not drawn) [Compound No. 73, N′-[1-[2-(2,3-dihydrobenzo[1,4]dioxin-2-ylmethoxy)phenyl]-1-imidazol-1-ylmethylidene]-N,N-dimethylhydrazine]",0.7,1.1
"CN(C)N=C(c1ccccc1SCCc1ccccc1)n1ccnc1 [Compound No. 84, N′-[1-imidazol-1-yl-1-(2-phenethylthiophenyl)methylidene]-N,N-dimethylhydrazine]",0.9,1.4
"CN(C)N=C(c1cccn1CCCOc1ccccc1)n1ccnc1 [Compound No. 108, N′-[1-imidazol-1-yl-1-[1-(3-phenoxypropyl)pyrrol-2-yl]methylidene]-N,N-dimethylhydrazine]",0.9,1.4
"CCN(C)N=C(c1ccccc1OCc1ccc(F)cc1)n1ccnc1 [Compound No. 113, N-ethyl-N′-[1-[2-(4-fluorobenzyloxy)phenyl]-1-imidazol-1-ylmethylidene]-N-methylhydrazine]",0.6,1.7
"CCN(C)N=C(c1ccccc1OCCCOc1ccccc1)n1ccnc1 [Compound No. 115, N-ethyl-N′-[1-imidazol-1-yl-1-[2-(3-phenoxypropoxy)phenyl]methylidene]-N-methylhydrazine]",0.7,1.4
"CCN(C)N=C(c1ccccc1OCCCCOc1ccccc1)n1ccnc1 [Compound No. 116, N-ethyl-N′-[1-imidazol-1-yl-1-[2-(4-phenoxybutoxy)phenyl]methylidene]-N-methylhydrazine]",0.7,1.1
"CCN(CC)N=C(c1ccccc1OCCOc1ccccc1)n1ccnc1 [Compound No. 119, N,N-diethyl-N′-[1-imidazol-1-yl-1-[2-(2-phenoxyethoxy)phenyl]methylidene]hydrazine]",0.9,1.1
"c1ccc(OCCOc2ccccc2C(=NN2CCCCC2)n2ccnc2)cc1 [Compound No. 175, [1-imidazol-1-yl-1-[2-(2-phenoxyethoxy)phenyl]methylidene]piperidin-1-ylamine]",0.6,1.4
"CCOc1ccccc1C(=NN1CCCCCC1)n1ccnc1 [Compound No. 197, [1-(2-ethoxyphenyl)-1-imidazol-1-ylmethylidene]homopiperidin-1-ylamine]",0.7,1.1
"CCCCOc1ccccc1C(=NN1CCCCCC1)n1ccnc1 [Compound No. 202, [1-(2-butoxyphenyl)-1-imidazol-1-ylmethylidene]homopiperidin-1-ylamine]",0.7,1.0
"CCCCCOc1ccccc1C(=NN1CCCCCC1)n1ccnc1 [Compound No. 203, homopiperidin-1-yl-[1-imidazol-1-yl-1-(2-pentyloxyphenyl)methylidene]amine]",0.9,1.0
"c1ccc(OCCOc2ccccc2C(=NN2CCCCCC2)n2ccnc2)cc1 [Compound No. 215, homopiperidin-1-yl-[1-imidazol-1-yl-1-[2-(2-phenoxyethoxy)phenyl]methylidene]amine]",0.8,1.2
"c1ccc(OCCCOc2ccccc2C(=NN2CCCCCC2)n2ccnc2)cc1 [Compound No. 216, homopiperidin-1-yl-[1-imidazol-1-yl-1-[2-(3-phenoxypropoxy)phenyl]methylidene]amine]",0.5,1.5
"FC(F)(F)Oc1ccccc1C(=NN1CCCCCC1)n1ccnc1 [Compound No. 219, homopiperidin-1-yl-[1-imidazol-1-yl-1-(2-trifluoromethoxyphenyl)methylidene]amine]",0.6,1.1
"CCSc1ccccc1C(=NN1CCCCCC1)n1ccnc1 [Compound No. 220, [1-(2-ethylthiophenyl)-1-imidazol-1-ylmethylidene]homopiperidin-1-ylamine]",0.5,1.1
"C=CC[C@@H]1/C=C(\C)C[C@H](C)C[C@H](OC)[C@H]2O[C@@](O)(C(=O)C(=O)N3CCCC[C@H]3C(=O)O[C@H](/C(C)=C/[C@@H]3CC[C@@H](O)[C@H](OC)C3)[C@H](C)[C@@H](O)CC1=O)[C@H](C)C[C@@H]2OC [FK506, tacrolimus, reference compound]",1.0,1.0
